Measurements published in patent US9877945B2 (priority 2013, dated 2018).
Where two headings read alike, the source gives them in different places.

System: Clostridium perfringens strain 56
Settings: for Number of birds with macroscopic necrotic enteritis lesions: lesion score 2 or more = positive; for Birds with macroscopic necrotic enteritis lesions, Total (%) (positive chicken in total) / Number of birds with macroscopic necrotic enteritis lesions, total: total of days 21-23
[1] = day 21, product on silica carrier in feed 5 / 2.5 / 2 kg/ton in weeks 1 / 2 / 3 (low conc for monobutyrate)
[2] = day 22, product on silica carrier in feed 5 / 2.5 / 2 kg/ton in weeks 1 / 2 / 3 (low conc for monobutyrate)
[3] = day 23, product on silica carrier in feed 5 / 2.5 / 2 kg/ton in weeks 1 / 2 / 3 (low conc for monobutyrate)
[4] = product on silica carrier in feed 5 / 2.5 / 2 kg/ton in weeks 1 / 2 / 3 (low conc for monobutyrate)
[5] = product on silica carrier in feed at high conc 7.5 / 6 / 5.5 kg/ton in weeks 1 / 2 / 3

SMILES	Number of birds with macroscopic necrotic enteritis lesions [1]	Number of birds with macroscopic necrotic enteritis lesions (day 21, product on silica carrier in feed at high conc 7.5 / 6 / 5.5 kg/ton in weeks 1 / 2 / 3)	Number of birds with macroscopic necrotic enteritis lesions [2]	Number of birds with macroscopic necrotic enteritis lesions (day 22, product on silica carrier in feed at high conc 7.5 / 6 / 5.5 kg/ton in weeks 1 / 2 / 3)	Number of birds with macroscopic necrotic enteritis lesions [3]	Number of birds with macroscopic necrotic enteritis lesions (day 23, product on silica carrier in feed at high conc 7.5 / 6 / 5.5 kg/ton in weeks 1 / 2 / 3)	chickens died during the trial (pen 3: higher concentration in feed (7.5 / 6 / 5.5 kg/ton))	Birds with macroscopic necrotic enteritis lesions, Total (%) (positive chicken in total) [4]	Number of birds with macroscopic necrotic enteritis lesions, total [4]	Birds with macroscopic necrotic enteritis lesions, Total (%) (positive chicken in total) [5]	Number of birds with macroscopic necrotic enteritis lesions, total [5]	Result in preventing Clostridium perfringens-induced necrotic enteritis compared with glyceryl monobutyrate at either concentration (FIG. 1) (added to the feed, P value <0.05 taken as significant)
CCCC(=O)OCC(O)CO (centres unmarked) [glyceryl monobutyrate]	5/9	4/9	3/9	5/9	2/10	3/8	2	36%	10/28	46%	12/26	
CCCC(=O)OCC(COC(=O)CCC)OC(=O)CCC [glyceryl tributyrate]	3/9		2/9		2/11			24%	7/29			significantly better result
